According to PubChem BioAssay (NCI):
Several values for one entry are separate records, joined by “and”; a condition that tells them apart may be missing. Equal entries are not always repeated.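 48-hour exposure; five concentrations; linearly interpolated endpoints. Here, GI50 denotes the concentration required for 50% inhibition of growth. Definition used: TGI = concentration required for complete inhibition of growth.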

Columns and labels:
Assay in all cases: inhibition of tumour cell growth, NCI panel, 48 h
[1] = test system: TK-10 renal
[2] = test system: LXFL 529 NSCLC
[3] = test system: LOX IMVI melanoma
[4] = test system: NCI-H460 lung
[5] = test system: SNB-75 CNS
[6] = test system: IGROV1 ovarian
[7] = test system: KM20L2 colon
[8] = test system: HCT-116 colon
[9] = test system: T-47D breast
[10] = test system: NCI/ADR-RES ovarian

| SMILES | TGI [1] | TGI [2] | TGI [3] | TGI [4] | TGI [5] | TGI [6] | TGI [7] | TGI [8] | GI50 [9] | TGI [9] | GI50 [1] | GI50 [3] | GI50 [4] | GI50 [10] | GI50 [5] | GI50 [6] | GI50 [8] | TGI [10] |
| --- | --- | --- | --- | --- | --- | --- | --- | --- | --- | --- | --- | --- | --- | --- | --- | --- | --- | --- |
| O=c1cc(-c2ccccn2)[nH]c2cccc(F)c12 | > 100 µM | > 100 µM | > 100 µM | > 100 µM | > 100 µM | > 100 µM | > 100 µM | – | – | – | – | – | – | – | – | – | – | – |
| N#C/C(=C1\SCC(=O)N1c1ccccc1)c1nc2ccccc2[nH]1 | > 100 µM | > 100 µM | > 100 µM | > 100 µM | > 100 µM | > 100 µM | > 100 µM | > 100 µM | – | – | – | – | – | – | – | – | – | – |
| C#CC1(O)CCC2C3CCc4cc(Oc5nc(F)nc(-c6c7ccccc7c7n6CCS7)n5)ccc4C3CC[C@@]21C (some centres not stated) | 71.3 µM | 57.3 µM | – | > 100 µM | 49.1 µM | > 100 µM | > 100 µM | 25.8 µM | – | – | – | – | – | – | – | – | – | – |
| CCCn1c(SCCSc2c3ccccc3c(-c3nc(F)nc(F)n3)n2CCC)c2ccccc2c1-c1nc(F)nc(F)n1 | > 100 µM | > 100 µM | – | > 100 µM | > 100 µM | – | > 100 µM | > 100 µM | – | – | – | – | – | – | – | – | – | – |
| CC(C)N(C(=O)c1cccc(C(=O)N(C(C)C)C(C)C)c1)C(C)C | > 100 µM | > 100 µM | > 100 µM | > 100 µM | > 100 µM | > 100 µM | > 100 µM | > 100 µM | – | – | – | – | – | – | – | – | – | – |
| [N-]=[N+]=NC(c1cn(C2CC(O)C(CO)O2)c(=O)[nH]c1=O)C(Cl)Br (configuration not stated) | > 100 µM | > 100 µM | > 100 µM | > 100 µM | > 100 µM | – | > 100 µM | > 100 µM | – | – | – | – | – | – | – | – | – | – |
| ClC(Cl)=C(Cl)C1(Cl)CC1COCc1ccccc1 (configuration not stated) | > 100 µM | > 100 µM | 54.8 µM | > 100 µM | > 100 µM | > 100 µM | > 100 µM | – | – | – | – | – | – | – | – | – | – | – |
| CCO/C=C1\N=C(c2ccc(Cl)c(Cl)c2)OC1=O | > 100 µM | > 100 µM | > 100 µM | > 100 µM | > 100 µM | > 100 µM | > 100 µM | – | – | – | – | – | – | – | – | – | – | – |
| C=CC(=O)N1C/C(=C\c2ccc(Cl)c(Cl)c2)C(=O)/C(=C/c2ccc(Cl)c(Cl)c2)C1 | 2.57 µM | 0.345 µM | 0.842 µM | 0.298 µM | 0.676 µM | 0.263 µM | 0.545 µM | 0.188 µM | – | – | – | – | – | – | – | – | – | – |
| C=C1CC(CC)(CCN2C(=O)c3ccccc3C2=O)OC1=O (configuration not stated) | 32.3 µM | 27.1 µM | 29.6 µM | > 100 µM | > 100 µM | > 100 µM | 46.1 µM | 25.4 µM | – | – | – | – | – | – | – | – | – | – |
| Cc1cc2c(c(C(N)=O)c1C)-c1cccc(F)c1C2=O | > 100 µM | > 100 µM | > 100 µM | > 100 µM | 66.5 µM | > 100 µM | > 100 µM | > 100 µM | – | – | – | – | – | – | – | – | – | – |
| COc1ccc(C(=O)Cn2c(C(=O)c3ccccc3)nc3ccccc32)cc1 | > 100 µM | – | > 100 µM | > 100 µM | > 100 µM | > 100 µM | – | > 100 µM | 3.87 µM | > 100 µM | 11 µM | 5.18 µM | 3.39 µM | 1.49 µM | 4.61 µM | 6.19 µM | 2.25 µM | – |
| O=C1NC(N/N=C\C(O)C(O)C(O)C(O)CO)=N/C1=C/c1ccccc1 (configuration not stated) | > 100 µM and 48.3 µM | – | > 100 µM and 36.4 µM | > 100 µM and 25.6 µM | > 100 µM and 54 µM | > 100 µM and 33.3 µM | – | > 100 µM and 33.8 µM | – | > 100 µM and 26.7 µM | > 100 µM and 19 µM | > 100 µM and 17.7 µM | 75.8 µM and 11.8 µM and > 100 µM | – | > 100 µM and 24.9 µM | > 100 µM and 16.2 µM | 52.2 µM and 16.4 µM and > 100 µM | > 100 µM |
| O=C(CCN1CCCC1)Nc1ccc2c(NCc3ccccc3)c3ccccc3nc2c1 | 3.5 µM | – | 1.31 µM | 1.07 µM | 1.7 µM | 1.67 µM | – | 1.31 µM | 0.562 µM | 2.89 µM | 0.802 µM | 0.328 µM | 0.313 µM | 11.9 µM | 0.398 µM | 0.383 µM | 0.309 µM | 55 µM |
| C/C(CC(=O)Nc1cccc(Cl)c1C)=N\NC(N)=S | > 100 µM | > 100 µM | > 100 µM | > 100 µM | > 100 µM | > 100 µM | > 100 µM | > 100 µM | – | – | – | – | – | – | – | – | – | – |
| COc1ccc(-c2c(C)c(C(=O)O)nc(-c3ccc4c(O)c(OC)c5c(c4n3)=NC(C)(C)N=5)c2N)c(O)c1OC | 72.7 µM | – | 25.7 µM | 17 µM | 11.4 µM | > 100 µM | – | 52.1 µM | – | > 100 µM | – | – | – | – | – | – | – | 58 µM |
| Fc1ccc(-c2ncn(C3CCNCC3)c2-c2ccnc(Oc3ccc4c(c3)OCO4)n2)cc1 | > 25 µM | – | > 25 µM | > 25 µM | > 25 µM | > 25 µM | – | > 25 µM | 12.7 µM | > 25 µM | > 25 µM | 12.3 µM | > 21.7 µM | > 25 µM | > 16.1 µM | 13.9 µM | 16.8 µM | > 25 µM |
| C=CO/N=[N+](\[O-])N(CC)CC | > 100 µM | – | > 100 µM | > 100 µM | > 100 µM | > 100 µM | – | > 100 µM | – | > 100 µM | – | – | – | – | – | – | – | > 100 µM |
| O=S(=O)(O)O | 2160 µM | – | 542 µM | 1210 µM | 2290 µM | 2170 µM | 2280 µM | 914 µM | – | 1770 µM | – | – | – | – | – | – | – | 2360 µM |
| Cc1ccc2nc3ccccc3c(NCc3ccc(Cl)cc3)c2c1 | 16.7 µM | – | 7.46 µM | 11.1 µM | 13.3 µM | 10.2 µM | – | 8.27 µM | 7.03 µM | 19.5 µM | 8.94 µM | 2.07 µM | 4.02 µM | 4.72 µM | 6.77 µM | 2.95 µM | 2.15 µM | 12.4 µM |
| Oc1c(C(Nc2ccccc2Br)c2ccccc2)ccc2cccnc12 (configuration not stated) | 46.3 µM | – | 13.6 µM | 11.7 µM | 48.6 µM | 22.9 µM | – | 18 µM | 3.77 µM | 73.1 µM | 3.34 µM | 1.91 µM | 0.722 µM | 1.44 µM | 2.82 µM | 3.47 µM | 3.13 µM | 24.5 µM |
